This is an account of results in patent EP4793271A1, “NEUROPROTECTIVE AGENT” (National Center of Neurology and Psychiatry, priority 2023, dated 2025).

A short description of data set [1]: Pharmacokinetic evaluation after single iv and po administration to mice. The following applies: for AUC(0-inf) / AUC(0-t) / C0 / half-life / clearance / Vd / Cmax / Tmax: male, C57BL/6J, mouse, plasma; for clearance: read-out: CLtot (converted); for Vd: read-out: Vss; for volume of distribution: result in words. It is filed as in vivo, C57BL/6J male mice. Here is the method:
The concentrations of compound 35 and its metabolites in plasma were measured, and oral absorbability (bioavailability) was evaluated. Systemic clearance was calculated for the iv administration, and pharmacokinetic features were determined.
The concentrations of compound 76 and its metabolites in plasma were measured, and oral absorbability (bioavailability) was evaluated. Systemic clearance was calculated for the iv administration, and pharmacokinetic features were determined.
The concentration of compound 105 in plasma was measured, and oral absorbability (bioavailability: BA) was evaluated. A half-life, the volume of distribution in a stationary state, and systemic clearance, and the like were calculated for the iv administration, and pharmacokinetic features were determined.

Data set [2] has as its target T1, nicotinamide phosphoribosyl transferase (NAMPT) (Homo sapiens, UniProt P43490).
T1 construct: purchased Medical & Biological Laboratories Co., Ltd. (MBL)
Put plainly: NAMPT activity measurement (NMN fluorescence detection). It counts as biochemical. The note with it: NAMPT recombinant protein; 10 µM Nam. An outline of the steps: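 Recombinant NAMPT reacted with 10 µM Nam, 0.5 µM PRPP, 2 µM ATP in Tris pH 7.4 buffer with MgCl2, DTT, BSA; product NMN quantified by fluorescence (ex 421/em 480 nm) after derivatization with 2-acetylbenzofuran. Compounds at 3 nM–10 µM; control-normalized signal used for IC50.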

The target in another data set is T2, hSARM1 (Homo sapiens, UniProt Q6SZW1).
T2 sequence (Q6SZW1 28-724): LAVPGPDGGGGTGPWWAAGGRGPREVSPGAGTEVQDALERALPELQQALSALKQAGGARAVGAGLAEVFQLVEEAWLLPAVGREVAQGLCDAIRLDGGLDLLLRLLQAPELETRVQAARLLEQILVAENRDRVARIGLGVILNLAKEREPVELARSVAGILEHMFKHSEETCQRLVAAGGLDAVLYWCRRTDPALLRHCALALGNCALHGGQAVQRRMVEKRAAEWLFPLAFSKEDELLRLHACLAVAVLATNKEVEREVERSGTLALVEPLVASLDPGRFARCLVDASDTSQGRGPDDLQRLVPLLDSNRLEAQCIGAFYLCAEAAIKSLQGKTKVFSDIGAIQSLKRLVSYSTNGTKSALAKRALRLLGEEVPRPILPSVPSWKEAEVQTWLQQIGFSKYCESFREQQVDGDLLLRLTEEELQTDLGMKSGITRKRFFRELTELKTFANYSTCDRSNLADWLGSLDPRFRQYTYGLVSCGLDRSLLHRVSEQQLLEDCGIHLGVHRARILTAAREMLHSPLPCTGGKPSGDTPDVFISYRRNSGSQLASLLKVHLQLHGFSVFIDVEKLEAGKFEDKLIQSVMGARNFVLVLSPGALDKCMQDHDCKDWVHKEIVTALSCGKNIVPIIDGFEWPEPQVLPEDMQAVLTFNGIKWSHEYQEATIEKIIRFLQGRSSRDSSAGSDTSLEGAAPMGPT
Put plainly: Human SARM1 activity measurement in HEK293 cells transiently transfected with ΔN-hSARM1 (PC6 fluorescent probe). It is filed as cell-based. More on the design: expressed in transfected cells; host or cells: HEK293, pcDNA3 expression vector. The note with it: inhibition rate; compound 30 µM; PC6 50 µM; HEK293 cells expressing ΔN-hSARM1; approximately 48 hours from transfection; read-out: Evaluation on hSARM1 inhibitory. Summed up:
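HEK293 cells in nicotinamide-free DMEM with 5 μM nicotinamide, transiently transfected with mitochondrial-targeting-deleted ΔN-hSARM1; PC6 base-exchange fluorescent probe (50 μM) plus compound (30 μM) added ~8 h post-transfection. Fluorescence (ex 405/em 525 nm) read ~48 h from transfection; inhibition % versus transfected DMSO control, untransfected background subtracted.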

Setting [3] is: 1 mg/kg, iv 1 mg/5 ml/kg single dose.
Where [4] appears, read: 10 mg/kg, po 10 mg/10 ml/kg single dose.

T1 sequence (P43490 whole entry, species assumed): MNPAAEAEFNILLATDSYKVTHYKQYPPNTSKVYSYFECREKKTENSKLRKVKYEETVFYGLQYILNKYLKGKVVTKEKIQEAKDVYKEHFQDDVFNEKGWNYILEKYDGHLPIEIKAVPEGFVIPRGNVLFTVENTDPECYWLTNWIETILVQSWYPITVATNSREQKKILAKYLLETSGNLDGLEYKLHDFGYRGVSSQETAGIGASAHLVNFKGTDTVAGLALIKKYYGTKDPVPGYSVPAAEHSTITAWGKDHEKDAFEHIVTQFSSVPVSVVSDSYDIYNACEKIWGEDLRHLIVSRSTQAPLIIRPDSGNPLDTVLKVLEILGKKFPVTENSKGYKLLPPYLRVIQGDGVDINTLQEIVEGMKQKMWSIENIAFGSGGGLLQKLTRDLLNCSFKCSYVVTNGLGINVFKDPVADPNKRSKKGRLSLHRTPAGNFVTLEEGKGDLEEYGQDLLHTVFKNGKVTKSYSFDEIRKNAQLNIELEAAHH

One may read the AUC(0-inf) as total exposure, with the tail of the curve extrapolated. What is called AUC(0-t) is the area under the concentration-time curve up to a stated or last time point. A lower AUC(0-t) goes with low exposure. The half-life is the time needed for the level to fall by half in the phase considered. Low readings indicate rapid decline, high ones slow decline. The term Cmax denotes the highest concentration seen after dosing. In general, Tmax refers to the time from dosing to the highest level. In data set [1] (setting [3]), `O=C(NCCCOCCOCCCNC(=O)c1cccnc1)c1cccnc1` [compound 35] showed an area under the curve AUC(0-inf) of 234 ng·h/mL, an AUC(0-t) of 228 ng·h/mL, a C0 of 1600 ng/mL and a half-life of 1.9 h. Besides, in data set [1] (setting [3]), the clearance is 71.4 mL/min/kg and the Vd amounted to 1.57 L/kg. Besides, in data set [1] (setting [4]), the AUC(0-inf) came out at 297 ng·h/mL, the AUC(0-t) was 293 ng·h/mL, the Cmax turned out to be 501 ng/mL and the Tmax was found to be 0.25 h. The compound further showed a half-life in data set [1] (setting [4]) of 1.89 h. The volume of distribution result in data set [1] is reported as “large as compared with the amount of intercellular fluid”. Also, the “Evaluation on NAMPT inhibitory” value in data set [2] was “○”. Further, the inhibition at 30 µM at hSARM1 is over 75%.
Turning to `O=C(NCc1ccc(NC(=O)c2ccccc2)nc1)c1cccnc1` [compound 105], in data set [1] (setting [3]), the AUC(0-inf) stood at 408 ng·h/mL, the area under the curve AUC(0-t) was found to be 391 ng·h/mL, the C0 came to 1050 ng/mL and the half-life is 2.81 h. In data set [1] (setting [3]), the clearance was 40.9 mL/min/kg and the Vd is 3.14 L/kg. In data set [1] (setting [4]), the total exposure AUC(0-inf) amounted to 2420 ng·h/mL, the exposure AUC(0-t) came to 2410 ng·h/mL, the Cmax came out at 2520 ng/mL and the Tmax stood at 0.25 h. The compound further showed a half-life in data set [1] (setting [4]) of 4.13 h. The volume of distribution entry in data set [1] is “large as compared with the amount of intercellular fluid”. Moreover, the “Evaluation on NAMPT inhibitory” value in data set [2] is on record as “○”. Further, the inhibition at 30 µM at hSARM1 is over 50%.
In data set [1] (setting [3]), `CC(C)(C)C(=O)Nc1ccc(CNC(=O)c2cccnc2)cn1` [compound 76] showed an AUC(0-inf) of 1160 ng·h/mL, an AUC(0-t) of 1160 ng·h/mL, a C0 of 1940 ng/mL and a half-life of 1.14 h. In addition, in data set [1] (setting [3]), the clearance is 14.6 mL/min/kg and the Vd was determined as 0.89 L/kg. For the same compound, in data set [1] (setting [4]), the AUC(0-inf) was found to be 14200 ng·h/mL, the AUC(0-t) came to 14100 ng·h/mL, the peak level (Cmax) was 9850 ng/mL and the Tmax was found to be 0.25 h. In data set [1] (setting [4]), this compound gave a half-life of 3.21 h. In data set [1] (po 10 mg/10 ml/kg vs iv 1 mg/5 ml/kg, oral absorbability (bioavailability)), this compound registered a BA of 124%. The volume of distribution entry in data set [1] is given as “large”. Also, the “Evaluation on NAMPT inhibitory” value in data set [2] was “○”. In addition, on hSARM1, the inhibition at 30 µM was over 50%.
